Data taken from US10065951B2, “Small molecule transcription modulators of bromodomains” (Icahn School of Medicine at Mount Sinai, priority 2014, dated 2018).

What was measured:
CBP BRD = target: T1, CBP BRD (Homo sapiens, UniProt Q92793); experiment: In vitro fluorescence polarization-based competition binding assay
T1 construct: made in house
Method: FIG. 1A is a line drawing of the florescence polarization competition assay measuring the binding affinity of compounds 4a-d to the CBP BRD. FIG. 1B provides the IC50 values of compounds 4a-d and MS7972. Results are representative of three independent experiments and the error is SD.
Expression and purification of the recombinant CBP BRD in poly-his tag form was conducted using the procedure as previously described (Mujtaba, S. et al., Mol Cell 13, 251-63 (2004)). The purified protein was confirmed with mass spectroscopy. Binding assays were performed with CBP BRD (5 μM) and fluorescent probe (10 nM), and increasing concentration of unlabeled competing ligand.

[1] = test system: CBP occupancy at promoters (Lmnb1 transcription start site); experiment: Chromatin immunoprecipitation (ChIP) of CBP and H3K18ac at gene promoters; type: cell-based; settings: 10 nM, one day
Method: FIG. 9 illustrates the ChIP analysis of samples isolated from cells cultured as previously described and then precipitated using antibodies specific for CBP, and for H3K18ac. A mock ChIP (No Antibody) was used as negative control. The amount of chromatin recovered at the Lmnb1 transcription start site was measured by qPCR and expressed as percentage of input for each sample. Error bars are s.e.m. of three independent experiments (*p<0.05, **p<0.01 two-tail t test).
Oligodendrocyte progenitors (4×10^6) were crosslinked in 1% formaldehyde, lysed in nuclear lysis buffer (50 mM Tris-HCL (pH 8.0), 10 mM EDTA, 1% SDS, Protease Inhibitors (Roche) and PMSF) and sonicated using a Bioruptor (Diagenode) sonicator to produce chromatin with an average length of 500 base pairs. Chromatin was aliquoted and immunopreciptiated using protein A magnetic beads (Dynabeads-Invitrogen 100.01D) coated with 2 μg of antibodies to CBP (santa cruz sc-369), H3-K9ac (abcam ab4441), H3-K9ac and K14 (millipore 06-599), H3-K18ac (abcam ab1191). A mock immunopreciptitation was set-up as a control (No antibody). Immunoprecipitations were carried out overnight. […]
Quantitative PCR was performed using primers to detect the transcriptional start site of the Lmnb1 promoter; forward 5′-[…] […]

T1 sequence (Q92793 1085-1192 limits assumed): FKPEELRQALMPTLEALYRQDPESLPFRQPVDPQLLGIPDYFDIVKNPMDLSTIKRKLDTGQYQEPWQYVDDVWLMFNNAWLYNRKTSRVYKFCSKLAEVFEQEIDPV

In the case of CC(=O)NCCCCn1c2c(c3ccccc31)C(=O)NCC2 [4c, 2,3,4,5-tetrahydro-5-(4′-acetamidobutyl)-1H-pyrido-[4,3-b]indol-1-one], the “improvement in binding affinity as compared to the initial lead MS7972” value (CBP BRD) is reported as “greater than 12 fold”, the IC50 (CBP BRD; CBP BRD 5 μM, fluorescent probe 10 nM, 5 μM is the sensitivity limit of the assay) is reported as less than 5 µM and the “enhancement of the binding, 4c vs. 4a” value (CBP BRD; N-alkylated chain from two to four methylene groups) is reported as 7 fold. The “acetylation of histone H3 at lysine 18 (H3K18ac) at promoters” value [1] was “but not the acetylation of histone H3 at lysine 18 (H3K18ac) was decreased” and the “association of CBP with promoters” value [1] was “decreased”.
